Key:
[1] = system: MCF-7 breast adenocarcinoma cells; test: Flow cytometry of CD44/CD176 expression after 4-OHT treatment; format: cell-based, human
Procedure: (§1) Cell suspensions of cell lines were prepared at 1×10^6 cells/100 μl. Cells were washed twice with PBS containing 2% BSA and incubated with primary antibodies at appropriate dilutions at 4° C. for 20 min, followed by anti-IgG-Cy3 (γ chain-specific) and anti-IgM-FITC (μ chain-specific) at appropriate concentrations at 4° C. for 20 min. Flow cytometry was performed with a FACScan (BD Biosciences, Franklin Lakes, N.J., USA). Collected data from 10,000 cells and WinMDI software were used in the analysis of FCS […]. For 4-hydroxytamoxifen treatment, MDA231, MDA435 and MCF-7 breast adenocarcinoma cell lines were exposed to 4-OHT (#H6278, Sigma) at a final concentration of 20 nM for 24 h. Then flow cytometry analysis was performed as described above.

[2] = system: MDA231 breast adenocarcinoma cells; test: as above; format: cell-based, human
Procedure: as §1

[3] = system: MDA435 breast adenocarcinoma cells; test: as above; format: cell-based, human; conditions: for change in percentage of CD44^+/CD176^+ cells after treatment: MDA435, 24 h, 20 nM
Procedure: as §1

[4] = system: MCF-7 breast adenocarcinoma cells; test: Flow cytometry of CD44/CD173/CD174 expression after 4-OHT treatment; format: cell-based; conditions: MCF-7, 20 nM for 24 h, P>0.05
Procedure: (§2) Cell suspensions from established cell lines were prepared at a density of 1×10^6 cells/100 μl. They were washed twice with phosphate buffered saline (PBS) containing 2% BSA and incubated with primary antibodies at 4° for 20 min, followed by anti IgG-Cy3 (γ chain-specific) and anti IgM-FITC (μ chain-specific) in appropriate concentrations at 4° for 20 min. Flow cytometry was performed on a FACScan (BD Biosciences, Franklin Lakes, N.J., USA). Collected data from 10,000 cells and WinMDI software were used for the analysis of FACS […]. For 4-hydroxytamoxifen treatment, MDA-MB-231, MDA-MB-435 and MCF-7 breast adenocarcinoma cell lines were exposed to 4-OHT (#H6278, Sigma) at a final concentration of 20 nM for 24 h. Then flow cytometry analysis was performed as described above.

[5] = system: MDA-MB-231 breast adenocarcinoma cells; test: as above; format: cell-based; conditions: MDA231, 20 nM for 24 h, P<0.05
Procedure: as §2

[6] = system: MDA-MB-435 breast adenocarcinoma cells; test: as above; format: cell-based; conditions: MDA-MB-435, 20 nM for 24 h, P>0.05
Procedure: as §2

[7] = MCF-7, 4-OHT 20 nM for 24 h, percent of the positive cells
[8] = MDA231, 4-OHT 20 nM for 24 h, percent of the positive cells
[9] = MDA435, 4-OHT 20 nM for 24 h, percent of the positive cells

Structure (SMILES): CC/C(=C(\c1ccc(O)cc1)c1ccc(OCCN(C)C)cc1)c1ccccc1 [4-OHT, 4-hydroxytamoxifen]
- CD44^+/C176^+ cells [1, 7]: ~8%
- CD44^+/CD176^− cells [1, 7]: ~20%
- CD44^−/CD176^+ cells [1, 7]: ~8%
- CD44^−/CD176^− cells [1, 7]: >60%
- change in number of CD44^+/CD176^+ co-expressing cells after treatment ([1]; MCF-7, 24 h, 20 nM): no significantly increased number
- CD44^+/C176^+ cells [2, 8]: ~2%
- CD44^+/CD176^− cells [2, 8]: ~1%
- CD44^−/CD176^+ cells [2, 8]: ~13%
- CD44^−/CD176^− cells [2, 8]: >60%
- change in number of CD44^+/CD176^+ co-expressing cells after treatment ([2]; MDA231, 24 h, 20 nM): no significantly increased number
- CD44^+/C176^+ cells [3, 9]: ~12%
- CD44^+/CD176^− cells [3, 9]: ~50%
- CD44^−/CD176^+ cells [3, 9]: ~7%
- CD44^−/CD176^− cells [3, 9]: ~31%
- change in percentage of CD44^+/CD176^+ cells after treatment [3]: increased
- change in percentage of CD44^+/CD176^+ cells after treatment ([3]; listed as tamoxifen): enhanced
- change in percentage of CD44^+CD173^+ cells after treatment [4]: not
- change in percentage of CD44^+CD174^+ cells after treatment [4]: not
- change in percentage of CD44^+CD173^+ cells after treatment [5]: increased
- change in percentage of CD44^+CD174^+ cells after treatment [5]: increased
- change in percentage of CD44^+CD173^+ cells after treatment [6]: not
- change in percentage of CD44^+CD174^+ cells after treatment [6]: not

— patent US20120294859A1, “CANCER STEM CELL MARKERS AND USES THEREOF” (GLYCOTOPE GMBH, priority 2010, published 2012)
